# Measurements published in patent US10500193B2, “Combination therapy of HSP90 inhibitors with platinum-containing agents” (SYNTA PHARMACEUTICALS CORP., priority 2011, dated 2019).
# Tested on: HCT-116 colorectal cancer cells
# Assay: Cell viability (alamarBlue) assay in HCT-116 cells
# Type: cell-based, Human
# Conditions: 72 hr exposure, four parameter logistic fit
# Description: Human HCT-116 colorectal cancer cells (CRC) and MDA-MB-231 breast cancer cells were purchased from the American Type Culture Collection (Manassas, Va.) and grown following ATCC recommendations, in the presence of fetal bovine serum (10%), 2 mM L-glutamine and antibiotics (100 IU/ml penicillin and 100 μg/ml streptomycin, Sigma). Cells were maintained at 37° C., 5% CO2 atmosphere.
# Cell viability was measured using the alamarBlue assay (Invitrogen). In brief, cells were plated in 96-well plates in triplicate at 5K cells per well and incubated at 37° C., 5% CO2 atmosphere for 24 hr prior to the addition of drug or vehicle (0.3% DMSO) to the culture medium. After 72 hr, 10 μl/well alamarBlue was added to the wells and incubated for an additional 3 hr at 37° C., 5% CO2 atmosphere. Fluorescence ([…]/590EM nM) was measured with a SpectraMax microplate reader (Molecular Devices) and the resulting data were used to calculate cell viability, normalized to vehicle control. […]
# Combinations between ganetespib and cisplatin were then performed in HCT-116 cells concurrently based on the IC50 for each agent in matrix format with 54 combination pairs for each drug. The combined drugs, as well as each drug alone, were incubated with the cells for 3 days and the surviving fraction of cells relative to control was determined using the alamarBlue assay.
IC50 (Homo sapiens),Compound,IC50
,N.N.[Cl][Pt][Cl] [cisplatin],~5700 nM
~32 nM,"CC(C)c1cc(-c2nnc(O)n2-c2ccc3c(ccn3C)c2)c(O)cc1O [ganetespib, 3-(2,4-DIHYDROXY-5- ISOPROPYL-PHENYL)-4-(1- METHYL-INDOL-5-YL)-5- HYDROXY-[1,2,4] TRIAZOLE]",
